In patent US6677433B2 (The Regents of the University of California, priority 2001, dated 2004):

How the values were obtained:
Acetylcholine Receptor = target: T1, Acetylcholine Receptor (Mus musculus, UniProt P02716+P04756+P04760); assay type: binding; conditions: cells treated with reductant, washed, then toxin; no reductant = 100
T1 construct: Mouse cells, line C2, were grown as described by Gu et al; endogenous in cells; host or cells: mouse cell line C2, after fusion medium (myotubes)

castor seed 2S protein = assay type: biochemical, Ricinus communis; conditions: 20 min at 25° C.
[1] = Reoxidation of reduced BLG in air; assay type: physicochemical; conditions: reduced by either NTS or DTT
Protocol: Two sulfhydryl (SH) groups can often spontaneously react to form an S—S bond in the presence of oxygen. […] For example, the reduced form of β-lactoglobulin (BLG), a major allergen of cow's milk, is fully reoxidized after 3 days in air whether reduced by either NTS or DTT. This invention provides for the stabilization of proteins, including allergenic proteins reduced by the NTS at 4° C. and by DTT at 55° C. Other physiological reductants such as lipoic acid may also be used to initially reduce the proteins. In general, the reduction reactions were conducted as described in previous examples. The proteins are stabilized in that the SH groups of these proteins and allergens are blocked and prevented from reoxidizing to form S—S bonds. This stabilization is maintained for at least three months, preferably at least six months and more preferably for longer than one year. Reduced BLG was stabilized by reaction with the physiological disulfides, cystamine and oxidized glutathione (GSSG) and also by heat. Other physiological disulfides such as homoglutathione and some microbial disulfides would also be suitable. Besides BLG, examples are provided for milk, peanut and pollen extracts. However, other reduced proteins such as those of egg, soy, rice, wheat and barley may also be stabilized by reaction with the same physiological disulfides and by treatment with heat. […]

NADP/thioredoxin system = NADP/thioredoxin system (Escherichia coli, UniProt P0AA25)
Protocol: Reactions were carried out in physiological buffered saline solution (PBS; i.e., 10 mM Na2HPO4, 1.8 mM KH2PO4, 2.7 mM KCl and 137 mM NaCl, pH 7.4) containing either 10 μg of pure target protein or 50 μg of raw milk. The reaction mixtures were incubated at 4° C. overnight or at 37° C. and 55° C. for 45 min. For complete reduction, samples were incubated in PBS containing 5 μl of 100 mM DTT and boiled 5 min. The reduced proteins were visualized on gels by mBBr labeling and gel electrophoresis as described below. The extent of reduction was determined by scanning the gels.
Sulfhydryl groups were visualized as their fluorescent mBBr derivatives. mBBr, 10 μl of a 100 mM solution, was added to each protein sample. After 20 min of incubation, the reaction was stopped by adding 10 μl of 100 mM 2-mercaptoethanol, 10 μl of 20% SDS and 20 μl of SDS/PAGE sample buffer containing 80% (v/v) glycerol and 0.005% bromophenol blue. Proteins were then separated by SDS/PAGE (10-20% acrylamide gradient) as described below. After electrophoresis, gels were placed in 12% trichloroacetic acid for 1 hr for fixation and then soaked overnight or longer in 40% (v/v) methanol and 10% (v/v) acetic acid with several changes to remove excess mBBr. The destained gels were then placed under 365 nm UV light to visualize fluorescent bands. […]

pepsin [2] = assay: Pepsin assay in simulated gastric fluid; assay type: in vitro ADME, porcine; conditions: oxidized BLG in milk, SGF 37° C.
Protocol: BLG, 640 μg, or milk, 1 mg protein (i.e., about 30 μl), was incubated with or without the thioredoxin system (NTS) at either 4° C. […] The BLG, 320 μg, or milk, 500 μg protein, was then treated in 200 μl of simulated gastric fluid (SGF) as described by Astwood, J. D. et al. (1996), “Stability of food allergens to digestion in vitro”, Nature Biotechnol. 14:1269-1273. SGF consists of 0.32% pepsin (w/v) and 30 mM NaCl adjusted at pH 1.2 with HCl (Board of Trustees (ed.) 1995, Simulated Gastric Fluid, TS., pp. 2053 in the United States Pharmacopeia 23, The National Formulary 18. United States Pharmacopeial Convention, Inc. Rockville, Md.). The reaction mixture was incubated at 37° C. and stopped by adding 0.375-fold volume of 160 mM Na2CO3 (ca. pH 7) after 0, 0.25, 1, 2, 4, 8, 15, 30 and 60 min incubation. The protein mixture was then subjected to SDS-PAGE (15% gels) and stained for protein with Coomassie blue as described below. As indicated, the allergenicity of the digested samples was determined by skin test analysis.

atopic dogs = assay: Skin tests in atopic dogs (wheal area); conditions: dog, in vivo
Protocol: Newborn pups from two litters of the atopic dog colony, designated CGB and GCB, were injected subcutaneously at day 1 with 1 μg each of wheat, cows milk and beef extract (Miles, Inc., Elkhart, Ind., described in Example 33) in 0.2 ml of alum. A third litter, designated CBB, was injected with a soy extract (Miles, Inc. described in Example 33) in addition to these same allergens. Procedures for the sensitization, testing and maintenance of the pups were substantially the same as those described in Example 36.
About 3 min prior to skin testing, each dog received 4-5 ml of filtered 0.5% Evans blue dye solution (equivalent to 0.2 ml of 0.5% Evans blue dye per kg of weight) through a cephalic vein to enhance assessment of the cutaneous IgE antibodies. Serial dilutions of 100 μl of each sample were injected intradermally on the abdominal skin to establish the titer. After 15-20 min, the allergic response was determined by measuring the size of the blue wheal reaction (maximum length and width). An appropriate negative control (buffer diluted in physiological saline) was included for each animal tested. Repeated tests with thioredoxin, NTR, NADPH and pepsin alone were consistently negative.

trypsin = assay: Trypsin proteolysis of purified milk allergen proteins; assay type: biochemical; conditions: 2 μg trypsin
Protocol: The analysis of the reduction was done using the mBBr/SDS-PAGE techniques. Further in this study, when 10 μg of an NTS reduced purified milk allergen protein, β-lactoglobulin (Sigma Chemical Co.), was treated with 2 μg of trypsin, proteolysis was 100% as compared with only 50% for the identically trypsin treated oxidized β-lactoglobulin. […] However, 10 μg of purified […] reduced by the NTS was proteolyzed 80% by trypsin. Also 10 μg of α-lactalbumin reduced by 0.8 μg of thioredoxin and 0.5 mM DTT was 100% proteolyzed by 2 μg of trypsin.

pepsin [3] = assay: Assay for stability to pepsin (simulated gastric fluid); assay type: in vitro ADME, porcine; conditions: 37° C.
Protocol: BLG (1 mg/ml) or milk (15 mg/ml) were mixed with simulated gastric fluid (SGF) to give 0.32% pepsin and incubated for the indicated times at 37° C. as described in Example 39 and Astwood et al., 1996, herein incorporated by reference. The digested proteins were analyzed by reducing SDS-PACE (10 to 20% gradient gel) also as described in Laemmli, 1970, herein incorporated by reference.

T1 sequence (P04760 23-519): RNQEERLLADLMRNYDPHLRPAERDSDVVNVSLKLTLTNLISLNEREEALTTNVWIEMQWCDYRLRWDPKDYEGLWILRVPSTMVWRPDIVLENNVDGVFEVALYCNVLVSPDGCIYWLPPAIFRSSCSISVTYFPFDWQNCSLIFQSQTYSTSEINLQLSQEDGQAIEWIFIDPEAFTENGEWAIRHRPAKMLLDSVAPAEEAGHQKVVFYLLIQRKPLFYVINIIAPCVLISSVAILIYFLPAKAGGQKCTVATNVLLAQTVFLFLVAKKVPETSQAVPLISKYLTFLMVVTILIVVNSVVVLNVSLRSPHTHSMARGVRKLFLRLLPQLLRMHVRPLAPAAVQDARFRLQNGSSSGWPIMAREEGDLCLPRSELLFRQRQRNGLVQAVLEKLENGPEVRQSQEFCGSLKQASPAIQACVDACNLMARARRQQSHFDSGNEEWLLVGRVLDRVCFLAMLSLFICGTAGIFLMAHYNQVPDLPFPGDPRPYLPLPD
T1 sequence (P02716 25-520): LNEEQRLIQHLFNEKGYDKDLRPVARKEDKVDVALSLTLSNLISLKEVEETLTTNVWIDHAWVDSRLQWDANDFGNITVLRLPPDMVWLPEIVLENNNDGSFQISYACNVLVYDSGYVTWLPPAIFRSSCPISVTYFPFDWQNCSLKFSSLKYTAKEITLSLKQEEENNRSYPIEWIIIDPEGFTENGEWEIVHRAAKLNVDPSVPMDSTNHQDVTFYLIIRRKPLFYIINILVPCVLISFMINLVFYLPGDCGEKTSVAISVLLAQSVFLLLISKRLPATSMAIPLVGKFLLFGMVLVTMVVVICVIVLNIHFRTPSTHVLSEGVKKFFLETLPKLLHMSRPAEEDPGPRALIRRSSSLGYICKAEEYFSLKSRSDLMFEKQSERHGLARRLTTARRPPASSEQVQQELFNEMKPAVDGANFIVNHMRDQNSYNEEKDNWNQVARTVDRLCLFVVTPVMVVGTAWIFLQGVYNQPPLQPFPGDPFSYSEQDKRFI
T1 sequence (P09690 24-501, further chain): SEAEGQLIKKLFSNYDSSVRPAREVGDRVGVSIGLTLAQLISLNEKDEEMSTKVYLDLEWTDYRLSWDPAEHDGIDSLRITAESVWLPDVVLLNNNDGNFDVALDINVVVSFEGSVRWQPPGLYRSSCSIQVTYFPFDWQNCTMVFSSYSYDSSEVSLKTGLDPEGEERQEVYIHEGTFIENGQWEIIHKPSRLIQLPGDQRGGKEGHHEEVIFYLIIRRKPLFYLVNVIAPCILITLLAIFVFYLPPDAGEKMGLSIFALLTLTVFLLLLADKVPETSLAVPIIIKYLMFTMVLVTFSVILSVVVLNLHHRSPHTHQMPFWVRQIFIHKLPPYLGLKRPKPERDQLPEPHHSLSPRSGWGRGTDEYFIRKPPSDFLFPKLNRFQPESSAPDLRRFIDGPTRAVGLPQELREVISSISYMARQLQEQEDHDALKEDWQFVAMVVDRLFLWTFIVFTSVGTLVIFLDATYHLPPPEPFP
T1 sequence (P04756 21-457): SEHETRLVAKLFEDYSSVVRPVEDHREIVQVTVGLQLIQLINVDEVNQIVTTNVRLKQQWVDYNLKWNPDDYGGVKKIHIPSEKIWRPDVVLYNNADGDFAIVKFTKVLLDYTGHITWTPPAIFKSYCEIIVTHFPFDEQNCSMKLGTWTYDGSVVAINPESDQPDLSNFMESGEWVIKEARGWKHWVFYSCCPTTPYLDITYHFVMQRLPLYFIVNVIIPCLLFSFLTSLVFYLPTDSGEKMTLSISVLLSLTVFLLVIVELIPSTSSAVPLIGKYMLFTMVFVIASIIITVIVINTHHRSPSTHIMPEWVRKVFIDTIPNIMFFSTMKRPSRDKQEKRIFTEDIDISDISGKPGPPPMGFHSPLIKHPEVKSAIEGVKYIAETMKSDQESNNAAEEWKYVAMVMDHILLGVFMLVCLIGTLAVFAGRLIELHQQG

Compound: O[C@H](CS)[C@H](O)CS (racemic) [DTT, dithiothreitol]
- % Binding, Treatment C (Acetylcholine Receptor): 85.0%
- Relative Reduction (%) (castor seed 2S protein): 67%

Compound: reduced form of BLG: BLG reduced by either NTS or DTT
- time to full reoxidation in air [1]: 3 days

Compound: β-lactoglobulin: bovine β-lactoglobulin, major milk allergen; Control = untreated BLG in Tables XVIII, XXI-XXIV
- time BLG remained reduced (NADP/thioredoxin system): 2 days
- time resisting digestion (pepsin [2]): at least 60 min
- share of the total wheal-inducing activity of milk (atopic dogs): 80%
- proteolysis by trypsin (trypsin; 10 μg oxidized protein): 50%
- proteolysis by trypsin (trypsin; 10 μg protein reduced by the NTS): 100%
- half-life in SGF (pepsin [3]): about 2 hours
